Earlier results on two compounds are cited in patent publication US20230000917A1, “TREATMENT OF HEPATITIS B VIRUS (HBV) INFECTION” (UCL BUSINESS LTD, priority 2019, published 2023).

The conditions of series [1]: in vivo.
For series [2] the following is noted: in vivo. The source holds these as a separate data set.
Series [3] concerns macrophage foam cell formation and atherosclerosis progression. As to conditions: oral administration, animal models.

Structures are written as SMILES.

As for `CC(C)c1cc(C(C)C)c(CC(=O)NS(=O)(=O)Oc2c(C(C)C)cccc2C(C)C)c(C(C)C)c1` [Avasimibe], in series [1], the oral bioavailability result is “orally bioavailable”. Besides, in series [2], the “plasma VLDL-cholesterol” value is given as “significantly reduce” and the plasma total triglyceride result is listed as “significantly reduce”.
In the case of `CSc1cc(C)nc(SC)c1NC(=O)CN1CCN(CCSc2nc3ccccc3[nH]2)CC1.Cl.Cl` [K604, 4-[2-(1H-Benzimidazol-2-ylthio)ethyl]-N-[6-methyl-2,4-bis(methylthio)-3-pyridinyl]-1-piperazineacetamide dihydrochloride], the “macrophage foam cell formation and atherosclerosis progression” value in series [3] is listed as “promising results”.
